In patent US6737383B1, “Herbicidal oxadiazolidines” (priority 1999, dated 2004):

Columns and labels:
[1] = tested on: wild oat; test: Test B pre/postemergence wild oat; assay type: in vivo, Avena fatua; details: for Plant response rating, Wild oats: Postemergence
Summary of the method: (§1)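 Test chemicals in a non-phytotoxic solvent mixture with surfactant were sprayed preemergence onto planted seeds and postemergence onto plants 2 to 18 cm tall (1- to 4-leaf stage). After twelve to sixteen days in a greenhouse, injury was visually rated against untreated controls from 0 (no effect) to 10 (complete control).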

[2] = tested on: morningglory; test: Test B pre/postemergence morningglory; assay type: in vivo, Ipomoea hederacea
Summary of the method: as §1

[3] = tested on: blackgrass; test: Test B pre/postemergence blackgrass; assay type: in vivo, Alopecurus myosuroides
Summary of the method: as §1

[4] = tested on: wheat; test: Test B pre/postemergence wheat; assay type: in vivo, Triticum aestivum; details: for Plant response rating, Wheat: Postemergence
Summary of the method: as §1

[5] = tested on: cocklebur; test: Test B pre/postemergence cocklebur; assay type: in vivo, Xanthium strumarium
Summary of the method: as §1

[6] = tested on: giant foxtail; test: Test B pre/postemergence giant foxtail; assay type: in vivo, Setaria faberii
Summary of the method: as §1

[7] = tested on: surinam grass; test: Test B pre/postemergence surinam grass; assay type: in vivo, Brachiaria decumbens
Summary of the method: as §1

[8] = tested on: rape; test: Test B pre/postemergence rape; assay type: in vivo, Brassica napus
Summary of the method: as §1

[9] = tested on: corn; test: Test B pre/postemergence corn; assay type: in vivo, Zea mays
Summary of the method: as §1

[10] = tested on: velvetleaf; test: Test B pre/postemergence velvetleaf; assay type: in vivo, Abutilon theophrasti; details: for Plant response rating, Velvetleaf: Postemergence
Summary of the method: as §1

[11] = tested on: purple nutsedge; test: Test B pre/postemergence purple nutsedge; assay type: in vivo, Cyperus rotundus
Summary of the method: as §1

[12] = tested on: crabgrass; test: Test B pre/postemergence crabgrass; assay type: in vivo, Digitaria sanguinalis
Summary of the method: as §1

[13] = tested on: bedstraw; test: Test B pre/postemergence bedstraw; assay type: in vivo, Galium aparine
Summary of the method: as §1

[14] = tested on: sugar beet; test: Test B pre/postemergence sugar beet; assay type: in vivo, Beta vulgaris; details: for Plant response rating, Sugarbeets: Postemergence
Summary of the method: as §1

[15] = tested on: pigweed; test: Test B pre/postemergence pigweed; assay type: in vivo, Amaranthus retroflexus; details: for Plant response rating, Redroot pigweed: Postemergence; for Plant response rating, Redroot pigweed / Redroot pigweed plant response rating: scale of 0 to 10 where 0 is no effect and 10 is complete control
Summary of the method: as §1

[16] = tested on: soybean; test: Test B pre/postemergence soybean; assay type: in vivo, Glycine max; details: for Plant response rating, Soybean: Postemergence
Summary of the method: as §1

[17] = Rate 125 g/ha, scale of 0 to 10 where 0 is no effect and 10 is complete control
[18] = Rate 500 g/ha, scale of 0 to 10 where 0 is no effect and 10 is complete control
[19] = Preemergence, Rate 62 g/ha, scale 0 to 10 (0 no effect, 10 complete control)
[20] = Preemergence, Rate 125 g/ha, scale of 0 to 10 where 0 is no effect and 10 is complete control
[21] = Preemergence, Rate 500 g/ha, scale of 0 to 10 where 0 is no effect and 10 is complete control
[22] = Rate 250 g/ha, scale of 0 to 10 where 0 is no effect and 10 is complete control
[23] = Postemergence, Rate 62 g/ha, scale of 0 to 10, 0 is no effect, 10 is complete control
[24] = Postemergence, Rate 125 g/ha, scale of 0 to 10 where 0 is no effect and 10 is complete control
[25] = Postemergence, Rate 500 g/ha, scale of 0 to 10 where 0 is no effect and 10 is complete control
[26] = Rate 250 g/ha, Postemergence, scale of 0 to 10 where 0 is no effect and 10 is complete control

In the case of `CC(C)N(C(=O)n1oc(=O)n(CCCCF)c1=O)c1ccccc1` [Compound 581], the “Plant response rating, Wild oats” value [1, 17] is reported as 5, the “Plant response rating, Wild oats” value [1, 18] is reported as 5 and the “Wild oats plant response rating” value [1, 19] is reported as 0. For the same compound, the “Wild oats plant response rating” value [1, 20] was 0, the “Wild oats plant response rating (0 to 10 scale)” value ([1]; Preemergence, Rate 250 g/ha) was 0 and the “Wild oats plant response rating” value [1, 21] was 8. For the same compound, the “Plant response rating, Wild oats” value [1, 22] was 5, the “Morningglory plant response rating” value [2, 23] was 4 and the “Plant response rating, Morningglory” value [2, 24] was 8. The “Plant response rating, Morningglory” value [2, 25] was 10, the “Morningglory plant response rating” value [2, 19] was 0 and the “Morningglory plant response rating” value [2, 20] was 2. For the same compound, the “Morningglory plant response rating (0 to 10 scale)” value ([2]; Preemergence, Rate 250 g/ha) was 4, the “Morningglory plant response rating” value [2, 21] was 6 and the “Plant response rating, Morningglory” value [2, 26] was 7. The “Blackgrass plant response rating” value [3, 23] was 4, the “Plant response rating, Blackgrass” value [3, 24] was 4 and the “Plant response rating, Blackgrass” value [3, 25] was 4. The “Blackgrass plant response rating” value [3, 19] was 0, the “Blackgrass plant response rating” value [3, 20] was 0 and the “Blackgrass plant response rating (0 to 10 scale)” value ([3]; Preemergence, Rate 250 g/ha) was 0. For the same compound, the “Blackgrass plant response rating” value [3, 21] was 7, the “Plant response rating, Blackgrass” value [3, 26] was 4 and the “Plant response rating, Wheat” value [4, 17] was 4. The “Plant response rating, Wheat” value [4, 18] was 4, the “Wheat plant response rating” value [4, 19] was 0 and the “Wheat plant response rating” value [4, 20] was 0. The “Wheat plant response rating (0 to 10 scale)” value ([4]; Preemergence, Rate 250 g/ha) was 2, the “Wheat plant response rating” value [4, 21] was 5 and the “Plant response rating, Wheat” value [4, 22] was 4. For the same compound, the “Cocklebur plant response rating” value [5, 23] was 2, the “Plant response rating, Cocklebur” value [5, 25] was 3 and the “Cocklebur plant response rating” value [5, 19] was 0. The “Cocklebur plant response rating” value [5, 20] was 0, the “Cocklebur plant response rating (0 to 10 scale)” value ([5]; Preemergence, Rate 250 g/ha) was 0 and the “Cocklebur plant response rating” value [5, 21] was 0. The “Plant response rating, Cocklebur” value [5, 26] was 3, the “Giant foxtail plant response rating” value [6, 23] was 7 and the “Plant response rating, Giant foxtail” value [6, 24] was 8. The “Plant response rating, Giant foxtail” value [6, 25] was 9, the “Giant foxtail plant response rating” value [6, 19] was 4 and the “Giant foxtail plant response rating” value [6, 20] was 10. The “Giant foxtail plant response rating (0 to 10 scale)” value ([6]; Preemergence, Rate 250 g/ha) was 9, the “Giant foxtail plant response rating” value [6, 21] was 10 and the “Plant response rating, Giant foxtail” value [6, 26] was 8. The “B. signalgrass plant response rating” value [7, 23] was 5, the “Plant response rating, B. signalgrass” value [7, 24] was 5 and the “Plant response rating, B. signalgrass” value [7, 25] was 8. For the same compound, the “B. signalgrass plant response rating” value [7, 19] was 0, the “B. signalgrass plant response rating” value [7, 20] was 0 and the “B. signalgrass plant response rating (0 to 10 scale, 0 is no effect, 10 is complete control)” value ([7]; Preemergence, Rate 250 g/ha) was 2. For the same compound, the “B. signalgrass plant response rating” value [7, 21] was 9, the “Plant response rating, B. signalgrass” value [7, 26] was 7 and the “Rape plant response rating” value [8, 23] was 0. For the same compound, the “Plant response rating, Rape” value [8, 24] was 7, the “Plant response rating, Rape” value [8, 25] was 7 and the “Rape plant response rating” value [8, 19] was 0. For the same compound, the “Rape plant response rating” value [8, 20] was 0, the “Rape plant response rating (0 to 10 scale)” value ([8]; Preemergence, Rate 250 g/ha) was 2 and the “Rape plant response rating” value [8, 21] was 7. The “Plant response rating, Rape” value [8, 26] was 7, the “Corn plant response rating” value [9, 23] was 2 and the “Plant response rating, Corn” value [9, 24] was 4. The “Plant response rating, Corn” value [9, 25] was 6, the “Corn plant response rating” value [9, 19] was 0 and the “Corn plant response rating” value [9, 20] was 2. The “Corn plant response rating (0 to 10 scale)” value ([9]; Preemergence, Rate 250 g/ha) was 7, the “Corn plant response rating” value [9, 21] was 9 and the “Plant response rating, Corn” value [9, 26] was 5. For the same compound, the “Plant response rating, Velvetleaf” value [10, 17] was 4, the “Plant response rating, Velvetleaf” value [10, 18] was 6 and the “Velvetleaf plant response rating” value [10, 19] was 5. The “Velvetleaf plant response rating” value [10, 20] was 5, the “Velvetleaf plant response rating (0 to 10 scale)” value ([10]; Preemergence, Rate 250 g/ha) was 5 and the “Velvetleaf plant response rating” value [10, 21] was 10. For the same compound, the “Plant response rating, Velvetleaf” value [10, 22] was 6, the “Nutsedge plant response rating” value [11, 23] was 0 and the “Nutsedge plant response rating” value [11, 19] was 0. For the same compound, the “Nutsedge plant response rating” value [11, 20] was 0, the “Nutsedge plant response rating (0 to 10 scale)” value ([11]; Preemergence, Rate 250 g/ha) was 4 and the “Nutsedge plant response rating” value [11, 21] was 8. For the same compound, the “Crabgrass plant response rating” value [12, 23] was 3, the “Plant response rating, Crabgrass” value [12, 24] was 7 and the “Plant response rating, Crabgrass” value [12, 25] was 9. The “Crabgrass plant response rating” value [12, 19] was 4, the “Crabgrass plant response rating” value [12, 20] was 9 and the “Crabgrass plant response rating (0 to 10 scale)” value ([12]; Preemergence, Rate 250 g/ha) was 8. For the same compound, the “Crabgrass plant response rating” value [12, 21] was 9, the “Plant response rating, Crabgrass” value [12, 26] was 7 and the “Bedstraw plant response rating” value [13, 23] was 0. The “Plant response rating, Bedstraw” value [13, 24] was 8, the “Plant response rating, Bedstraw” value [13, 25] was 9 and the “Bedstraw plant response rating” value [13, 19] was 8. For the same compound, the “Bedstraw plant response rating” value [13, 20] was 9, the “Bedstraw plant response rating (0 to 10 scale)” value ([13]; Preemergence, Rate 250 g/ha) was 7 and the “Bedstraw plant response rating” value [13, 21] was 9. For the same compound, the “Plant response rating, Sugarbeets” value [14, 17] was 5, the “Plant response rating, Sugarbeets” value [14, 18] was 8 and the “Sugarbeets plant response rating” value [14, 19] was 0. For the same compound, the “Sugarbeets plant response rating” value [14, 20] was 0, the “Sugarbeets plant response rating (0 to 10 scale)” value ([14]; Preemergence, Rate 250 g/ha) was 0 and the “Sugarbeets plant response rating” value [14, 21] was 9. For the same compound, the “Plant response rating, Sugarbeets” value [14, 22] was 7, the “Plant response rating, Redroot pigweed” value ([15]; Rate 125 g/ha) was 8 and the “Plant response rating, Redroot pigweed” value ([15]; Rate 500 g/ha) was 9. The “Redroot pigweed plant response rating” value ([15]; Preemergence, Rate 125 g/ha) was 5, the “Redroot pigweed plant response rating (0 to 10 scale)” value ([15]; Preemergence, Rate 250 g/ha) was 9 and the “Redroot pigweed plant response rating” value ([15]; Preemergence, Rate 500 g/ha) was 10. For the same compound, the “Plant response rating, Redroot pigweed” value ([15]; Rate 250 g/ha) was 8, the “Plant response rating, Soybean” value [16, 17] was 4 and the “Plant response rating, Soybean” value [16, 18] was 5. For the same compound, the “Soybean plant response rating” value [16, 19] was 0, the “Soybean plant response rating” value [16, 20] was 0 and the “Soybean plant response rating (0 to 10 scale)” value ([16]; Preemergence, Rate 250 g/ha) was 5. The “Soybean plant response rating” value [16, 21] was 7 and the “Plant response rating, Soybean” value [16, 22] was 4.
